Experimental findings from US7972615B2, “Peptide compositions for coating metal medical devices with vancomycin” (Affinergy, Inc., priority 2008, dated 2011) are described below.

The format of data set [1] is binding. As to conditions: FIG. 1; 18 hour incubation in 10% BSA+10 mM guanidinium chloride. From the text:
In this example, illustrated are unexpected beneficial properties of the composition of the invention, including but not limited to, one or more improved biophysical properties. Such one or more unexpected beneficial properties of a composition of the invention may comprise an increase in stability. An increase in stability may comprise any one or more of resistance to chemical denaturation, resistance to proteolytic degradation, improved retention to a substrate (e.g., resistance to being competed off a substrate to which it is bound, such as by proteins or other biomolecules found in body tissues). Thus, to ascertain a beneficial property of a composition of the invention, it is compared to the properties of a component of the composition-namely, a substrate-binding peptide by itself (e.g., without fatty acid covalently coupled thereto). An assay was developed that, from our direct comparisons (see, e.g., discussion of FIG. 2 below, and Example 7 herein), mimicked the effect of incubation of substrate-binding peptide with human plasma on stability of binding of a substrate-binding peptide to its substrate. The assay utilized incubations in the presence of 10% bovine serum album (BSA) with 10 mM guanidinium chloride. The high BSA concentration mimics the elevated albumin content of human plasma, and the guanidinium chloride is used to compete with any charged interactions involved in binding of the substrate-binding peptide to its substrate.
In this assay, two immunoassay plates were prepared for a “side-by-side” comparison of binding of a test sample (substrate-binding peptide or composition of the invention) to its substrate with or without the presence of 10% BSA with 10 mM guanidinium chloride. The wells of each 96-well polypropylene plate were incubated with 350 μl BSA 1% in PBS for 30 minutes at 20° C. with 500 rpm shaking. To each well was added one acetone-cleaned 3/32″ 316LVM stainless steel bead, followed by addition of dilutions in PBS of the test sample in a range of concentrations starting from 10 μM. Final volume in each well was 200 μl. The plates were incubated for 1 hour at 20° C. with 500 rpm shaking to allow for the binding to occur. The beads were washed 3 times with 250 μl PBS using a plate washer. […]
In the immunoassay for detecting binding without the presence of 10% BSA with 10 mM guanidinium chloride, added to each well was 200 μl of streptavidin AP (AP is alkaline phosphatase) at 1/200 in TBS+1% BSA. […] When color has developed, each well was read at OD405 nm in endpoint mode using a plate reader. […] When color has developed, the wells were read at OD405 nm in endpoint mode using a plate reader. […]

A short description of data set [2]: Critical micelle concentration (CMC) assay with methyl orange. Type of data set: physicochemical. The following applies: pH 7 PBS, A484. On the procedure:
Formation of a composition of the invention, and evidence of macromolecular network formation, may be monitored or quantified by any means known in the art. In this example, macromolecular formation was detected using a standard assay for determining critical micelle concentration (“CMC”). In this assay, a solution containing the composition of the invention (in a range of concentrations in pH 7 phosphate buffered saline (“PBS”)) was mixed with a solution of methyl orange (0.04 mM in PBS), and the absorbance of the mixture was measured at 484 nm (A484). CMC is the concentration at which a sharp decrease in absorbance at A484 is observed, a change in the optical properties of methyl orange when trapped in a hydrophobic phase, such as caused by self-association as a macromolecular network (Table 7, “CMC”). Also included in this assay were an assay control peptide having an amino acid sequence of SEQ ID NO:122 (Table 7, “Control”), and compound 119 (a PEGylated peptide, the peptide having an amino acid sequence of SEQ ID NO:122, as described in more detail in Example 6 herein).

Data set [3] in a line: Stent flow model (in vitro model for in vivo stability on a stent). Type of data set: binding. The following applies: radiolabelled.
Description: In this example, an in vitro model for in vivo stability on a medical device comprising a stent was performed. The stent flow model included a “circulatory system” comprising a peristaltic pump and clear silicone tubing into which is placed a stent (8 mm, stainless steel) coated with a composition according to the invention. Coating of the stents was accomplished by incubating the stents with radiolabelled composition 132 (specific activity 2,400 cpm/pmole at 20 μM in PBS) for 1 hour at 20° C., followed by extensive washing with buffer. […] In another variation of the stent flow model, 10% BSA+10 mM guanidinium chloride was circulated through the circulatory system at a flow rate of 5 ml/min for 18 hours at 37° C. After circulation in the respective variations of the stent flow model, the coated stents were then counted for radioactivity. To serve as an assay “control”, some coated stents were not placed in the stent flow model, but rather counted for radioactive counts to provide a reference from which percent retention could be calculated for those coated stents included in the stent flow model.
The nature of data set [4]: Vancomycin loading onto titanium bead, HPLC of HCl eluate. As to conditions: components mixed with vancomycin, 30 mins at 20° C., washed three times. Type of data set: binding. As to the method:
The experimental procedure used for the embodiments described above was as follows. […] All three components were mixed and then applied to the metal bead. […] All three components were mixed and then applied to the metal bead. […] The mixtures were applied to the metal beads and incubated for 30 mins at 20° C. with 700 rpm shaking. The beads were washed three times with 350ul PBS. Beads were analyzed as follows: 200 ul of 100 mM HCl was added to each bead and incubated for 30 mins at 20° C. with 1,000 rpm shaking. The eluate from each bead was analyzed by HPLC using Phenomenex Luna 3 um column, 50×4.60 mm. Output was compared to a standard curve for vancomycin to determine the amount of vancomycin retained onto the metal bead.

Square brackets hold non-standard residues; d marks the D form. Ends that are not written are not given here. miniPeg = miniPEG linker unit; Aun = NCCCCCCCCCCC(=O)O

For the substance “119: Fmoc-NH-(PEG)27-CO2H covalently coupled to a peptide having the amino acid sequence of SEQ ID NO:122 (PEGylated peptide) (SSHRTNHKKNNPKKKNKTRGSSGK; not fully specified (N-terminus); also: Fmoc-NH-(PEG)27-CO2H covalently coupled, site not given here) [Compound 119, reference compound]”, the “retention of binding of substrate-binding peptide component to its substrate, compared to substrate-binding peptide alone (SEQ ID NO: 122)” value in data set [1] is “failed to promote retention”.
Take “120: amino acid sequence YWAWAYAW (SEQ ID NO:129) covalently coupled to a peptide having the amino acid sequence of SEQ ID NO:122 (YWAWAYAWSSHRTNHKKNNPKKKNKTRGSSGK) [Compound 120, reference compound]”: the “retention of binding of substrate-binding peptide component to its substrate, compared to substrate-binding peptide alone (SEQ ID NO: 122)” value in data set [1] is “failed to promote retention”.
“AUD-AUD-AUD-AUD-AUD-AUD-SEQ ID NO: 122 ([Aun][Aun][Aun][Aun][Aun][Aun]SSHRTNHKKNNPKKKNKTRGSSGK) [Compound 130]” showed a CMC in data set [2] of 0.041 µM.
Consider “AUD-AUD-AUD-AUD-SEQ ID NO: 122 ([Aun][Aun][Aun][Aun]SSHRTNHKKNNPKKKNKTRGSSGK) [Compound 122]”, for which the “retention of binding of substrate-binding peptide component to its substrate, compared to substrate-binding peptide alone (SEQ ID NO: 122)” value in data set [1] is recorded as “significantly improved retention”.
For “AUD-AUD-K-AUD-AUD-AUD-AUD-SEQ ID NO: 122 ([Aun][Aun]K[Aun][Aun][Aun][Aun]SSHRTNHKKNNPKKKNKTRGSSGK) [Compound 123]”, in data set [1], the “retention of binding of substrate-binding peptide component to its substrate, compared to substrate-binding peptide alone (SEQ ID NO: 122)” value is “significantly improved retention”.
“Ac-Y-AUD-AUD-AUD-AUD-AUD-AUD-SEQ ID NO: 122 (Ac-Y[Aun][Aun][Aun][Aun][Aun][Aun]SSHRTNHKKNNPKKKNKTRGSSGK) [Compound 132]”: the “composition remained bound to the coated stents” value in data set [3] (10% BSA+10 mM guanidinium chloride circulated at 5 ml/min for 18 hours at 37° C.) and in data set [3] (human plasma circulated at 5 ml/min for 7 days at 37° C.) was “over 90%” each time.
Turning to “MA-Ahx-SSCLIDIYGVCHN FDAY-miniPeg-miniPeg-HKKNNPKKKNKTRGSSK(Biotin) [SEQ ID NO: 164]”, the “Vancomycin Load” value in data set [4] amounted to 278 pmol/cm2.
Regarding “SSSCLIDMYGVCHNFDGAYDSSRG-miniPeg-miniPeg-SSHRTNHKKNNPKKKNKTRGSSGK (SSSCLIDMYGVCHNFDGAYDSSRG[miniPeg][miniPeg]SSHRTNHKKNNPKKKNKTRGSSGK; cysteine pairing not given here) [SEQ ID NO: 163]”, the “Vancomycin Load” value in data set [4] is listed as 54 pmol/cm2.
